Results on 19 molecules are retold here after US20190270778A1, “Cyclic Peptides As C5a Receptor Antagonists” (priority 2016, published 2019).

For series [1] the following is noted: amide bond.
For series [2] the following is noted: amide bond, 18-membered ring.
The conditions of series [3]: amide bond, 18-membered ring. The source holds these as a separate data set.
For series [4] the following is noted: the molecule shown is the open-chain precursor; amide bond; 18-membered ring.
Where [5] appears, read: the molecule shown is the open-chain precursor.

Like-named read-outs stand apart in the source and are kept apart here.

In the case of `Cc1c(C)c(S(=O)(=O)NC(=N)NCCC[C@@H]2NC(=O)[C@H](Cc3cn(C(=O)OC(C)(C)C)c4ccccc34)NC(=O)[C@@H](C[C@H]3CC[C@@H](O)CC3)NC(=O)[C@@H]3C[C@@H](OC(C)(C)C)CN3C(=O)[C@@H](NC(=O)OC(C)(C)C)CCCNC2=O)c(C)c2c1OC(C)(C)C2`, the ring closure, yield of all isomers in series [1] (from Cc1c(C)c(S(=O)(=O)NC(=N)NCCC[C@H](NC(=O)[C@H](Cc2cn(C(=O)OC(C)(C)C)c3ccccc23)NC(=O)[C@@H](C[C@H]2CC[C@@H](O)CC2)NC(=O)[C@@H]2C[C@@H](OC(C)(C)C)CN2)C(=O)NCCC[C@H](NC(=O)OC(C)(C)C)C(=O)O)c(C)c2c1OC(C)(C)C2, HATU, THF, 13.1 mM, 25.0 °C, 0.25 h) worked out at 95.3%.
In series [2] (2 steps), “((S)-1-(((3R,6S,9S,15S,19R,20aS)-6-((1H-indol-3-yl)methyl)-19-amino-9-(3-guanidinopropyl)-3-(((1s,4S)-4-hydroxycyclohexyl)methyl)-1,4,7,10,16-pentaoxoicosahydropyrrolo[1,2-a][1,4,7,10,13]pentaazacyclooctadecin-15-yl)amino)-1-oxo-3-phenylpropan-2-yl)glycine” showed a ring closure, yield after HPLC of 6.6%.
In the case of “((S)-1-(((3R,6S,9S,15S,19R,20aS)-6-((1H-indol-3-yl)methyl)-19-acetamido-9-(3-guanidinopropyl)-3-(((1s,4S)-4-hydroxycyclohexyl)methyl)-1,4,7,10,16-pentaoxoicosahydropyrrolo[1,2-a][1,4,7,10,13]pentaazacyclooctadecin-15-yl)amino)-1-oxo-3-phenylpropan-2-yl)glycine”, the ring closure, yield after HPLC in series [2] (2 steps) was determined as 20%.
In series [2] (with chain assembly), “((S)-1-(((3R,6S,9S,15S,19R,20aS)-9-(3-guanidinopropyl)-19-hydroxy-3-(((1s,4S)-4-hydroxycyclohexyl)methyl)-6-((6-methoxy-1H-indol-3-yl)methyl)-1,4,7,10,16-pentaoxoicosahydropyrrolo[1,2-a][1,4,7,10,13]pentaazacyclooctadecin-15-yl)amino)-1-oxo-3-phenylpropan-2-yl)glycine” came in with a ring closure, yield after HPLC of 2.3%.
For “H-Pro((4S)-N(Boc)CH2CO2tBu)-dAla(3-(cis-4-hydroxycyclohexyl))-Trp(Boc)-Arg(Pbf)-Orn(Nα-[Boc-N(CH2CO2tBu)-Phe]; chain through Nδ)-OH”, in series [3] (setting [5]), the ring closure, crude yield is 100%.
Still for that read-out and setting: next, “H-Pro-dAla(3-(cis-4-hydroxycyclohexyl))-Ala(3-(1-Boc-1H-pyrrolo[2,3-b]pyridin-3-yl))-Arg(Pbf)-Orn(Nα-[Boc-N(CH2CO2tBu)-Phe]; chain through Nδ)-OH”: 100%.
Take `CCc1ccc2c(C[C@@H]3NC(=O)[C@@H](C[C@H]4CC[C@@H](O)CC4)NC(=O)[C@@H]4C[C@@H](OC(C)(C)C)CN4C(=O)[C@@H](NC(=O)[C@H](Cc4ccccc4)N(CC(=O)OC(C)(C)C)C(=O)OC(C)(C)C)CCCNC(=O)[C@H](CCCNC(=N)NS(=O)(=O)c4c(C)c(C)c5c(c4C)CC(C)(C)O5)NC3=O)cn(C(=O)OC(C)(C)C)c2c1`: the ring closure, yield of all isomers in series [1] (from CCc1ccc2c(C[C@H](NC(=O)[C@@H](C[C@H]3CC[C@@H](O)CC3)NC(=O)[C@@H]3C[C@@H](OC(C)(C)C)CN3)C(=O)N[C@@H](CCCNC(=N)NS(=O)(=O)c3c(C)c(C)c4c(c3C)CC(C)(C)O4)C(=O)NCCC[C@H](NC(=O)[C@H](Cc3ccccc3)N(CC(=O)OC(C)(C)C)C(=O)OC(C)(C)C)C(=O)O)cn(C(=O)OC(C)(C)C)c2c1) was found to be 42%.
Consider `Cc1c(C)c(S(=O)(=O)NC(=N)NCCC[C@@H]2NC(=O)[C@H](Cc3cn(C(=O)OC(C)(C)C)c4ccccc34)NC(=O)[C@@H](C[C@H]3CC[C@@H](O)CC3)NC(=O)[C@@H]3C[C@@H](OC(C)(C)C)CN3C(=O)[C@@H](NC(=O)[C@H](Cc3ccccc3)N(CC(=O)OC(C)(C)C)C(=O)OC(C)(C)C)CCCNC2=O)c(C)c2c1OC(C)(C)C2`, for which, in series [1] (from Cc1c(C)c(S(=O)(=O)NC(=N)NCCC[C@H](NC(=O)[C@H](Cc2cn(C(=O)OC(C)(C)C)c3ccccc23)NC(=O)[C@@H](C[C@H]2CC[C@@H](O)CC2)NC(=O)[C@@H]2C[C@@H](OC(C)(C)C)CN2)C(=O)NCCC[C@H](NC(=O)[C@H](Cc2ccccc2)N(CC(=O)OC(C)(C)C)C(=O)OC(C)(C)C)C(=O)O)c(C)c2c1OC(C)(C)C2, HATU, THF, 14.1 mM, 25.0 °C, 0.5 h), the ring closure, yield of all isomers stood at 87%.
Molecule “((31R,6S,9S,15S,19R,20aS)-6-((1H-indol-3-yl)methyl)-15-((S)-2-((carboxymethyl)amino)-3-phenylpropanamido)-9-(3-guanidinopropyl)-3-(((1s,4S)-4-hydroxycyclohexyl)methyl)-1,4,7,10,16-pentaoxoicosahydropyrrolo[1,2-a][1,4,7,10,13]pentaazacyclooctadecin-19-yl)glycine” came in with a ring closure, yield after HPLC in series [2] (with chain assembly) of 19.4%.
“((S)-1-(((3R,6S,9S,15S,19S,20aS)-6-((1H-indol-3-yl)methyl)-19-acetamido-9-(3-guanidinopropyl)-3-(((1s,4S)-4-hydroxycyclohexyl)methyl)-1,4,7,10,16-pentaoxoicosahydropyrrolo[1,2-a][1,4,7,10,13]pentaazacyclooctadecin-15-yl)amino)-1-oxo-3-phenylpropan-2-yl)glycine”: the ring closure, yield after HPLC in series [2] (2 steps) was 30%.
Consider “H-Hyp(tBu)-dAla(3-(cis-4-hydroxycyclohexyl))-Ala(3-(4-methyl-1H-pyrazol-1-yl))-Arg(Pbf)-Orn(Nα-[Boc-N(CH2CO2tBu)-Phe]; chain through Nδ)-OH”, for which the ring closure, crude yield in series [3] (setting [5]) is 48%.
`Cc1c(C)c(S(=O)(=O)NC(=N)NCCC[C@@H]2NC(=O)[C@H](Cc3cn(C(=O)OC(C)(C)C)c4ccccc34)NC(=O)[C@@H](C[C@H]3CC[C@@H](O)CC3)NC(=O)[C@@H]3C[C@@H](OCC(=O)OC(C)(C)C)CN3C(=O)[C@@H](NC(=O)[C@H](Cc3ccccc3)N(CC(=O)OC(C)(C)C)C(=O)OC(C)(C)C)CCCNC2=O)c(C)c2c1OC(C)(C)C2`: the ring closure, yield of all isomers in series [1] (from Cc1c(C)c(S(=O)(=O)NC(=N)NCCC[C@H](NC(=O)[C@H](Cc2cn(C(=O)OC(C)(C)C)c3ccccc23)NC(=O)[C@@H](C[C@H]2CC[C@@H](O)CC2)NC(=O)[C@@H]2C[C@@H](OCC(=O)OC(C)(C)C)CN2)C(=O)NCCC[C@H](NC(=O)[C@H](Cc2ccccc2)N(CC(=O)OC(C)(C)C)C(=O)OC(C)(C)C)C(=O)O)c(C)c2c1OC(C)(C)C2) turned out to be 83%.
For the molecule “H-Hyp(tBu)-dAla(3-(cis-4-hydroxycyclohexyl))-Ala(3-(1-Boc-1H-pyrrolo[2,3-b]pyridin-3-yl))-Arg(Pbf)-Orn(Nα-[Boc-N(CH2CO2tBu)-Phe]; chain through Nδ)-OH”, the ring closure, crude yield in series [3] (setting [5]) turned out to be 100%.
“((S)-1-(((3R,6S,9S,15S,19R,20aS)-9-(3-guanidinopropyl)-19-hydroxy-3-(((1s,4S)-4-hydroxycyclohexyl)methyl)-6-((5-methoxy-1H-indol-3-yl)methyl)-1,4,7,10,16-pentaoxoicosahydropyrrolo[1,2-a][1,4,7,10,13]pentaazacyclooctadecin-15-yl)amino)-1-oxo-3-phenylpropan-2-yl)glycine” displayed a ring closure, yield after HPLC in series [2] (2 steps) of 6%.
Still for that read-out and setting: next, “((S)-1-(((31R,6S,9S,15S,19R,20aS)-6-((1H-indazol-3-yl)methyl)-9-(3-guanidinopropyl)-19-hydroxy-3-(((1s,4S)-4-hydroxycyclohexyl)methyl)-1,4,7,10,16-pentaoxoicosahydropyrrolo[1,2-a][1,4,7,10,13]pentaazacyclooctadecin-15-yl)amino)-1-oxo-3-phenylpropan-2-yl)glycine”: 35%.
The molecule `Cc1c(C)c(S(=O)(=O)NC(=N)NCCC[C@@H]2NC(=O)[C@H](Cc3cn(C(=O)OC(C)(C)C)c4ncccc34)NC(=O)[C@@H](C[C@H]3CC[C@@H](O)CC3)NC(=O)[C@@H]3C[C@@H](OC(C)(C)C)CN3C(=O)[C@@H](NC(=O)[C@H](Cc3ccccc3)N(CC(=O)OC(C)(C)C)C(=O)OC(C)(C)C)CCCNC2=O)c(C)c2c1OC(C)(C)C2` came in with a ring closure, yield of all isomers in series [1] (from Cc1c(C)c(S(=O)(=O)NC(=N)NCCC[C@H](NC(=O)[C@H](Cc2cn(C(=O)OC(C)(C)C)c3ncccc23)NC(=O)[C@@H](C[C@H]2CC[C@@H](O)CC2)NC(=O)[C@@H]2C[C@@H](OC(C)(C)C)CN2)C(=O)NCCC[C@H](NC(=O)[C@H](Cc2ccccc2)N(CC(=O)OC(C)(C)C)C(=O)OC(C)(C)C)C(=O)O)c(C)c2c1OC(C)(C)C2) of 93.4%.
The molecule “H-Hyp(tBu)-dAla(cis-4-hydroxycyclohexyl)-Trp(Boc,6-Et)-Arg(Pbf)-(Nδ)Orn(Nα-[Boc-N(CH2CO2tBu)-Phe])-OH” gave a ring closure, isolated yield in series [4] of 42%.
“tert-butyl-3-(((3R,6S,9S,15S,19R,20aS)-19-(tert-butoxy)-15-((tert-butoxycarbonyl)amino)-3-(((1s,4S)-4-hydroxycyclohexyl)methyl)-1,4,7,10,16-pentaoxo-9-(3-(3-((2,2,4,6,7-pentamethyl-2,3-dihydrobenzofuran-5-yl)sulfonyl)guanidino)propyl)icosahydropyrrolo[1,2-a][1,4,7,10,13]pentaazacyclooctadecin-6-yl)methyl)-1H-indole-1-carboxylate” displayed a ring closure, crude yield in series [3] (HATU/NMM, THF/DMF 10:1, 13.1 mM) of 95.3%.
In series [1] (from Cc1c(C)c(S(=O)(=O)NC(=N)NCCC[C@H](NC(=O)[C@H](Cc2c[nH]c3ccccc23)NC(=O)[C@@H](C[C@H]2CC[C@@H](O)CC2)NC(=O)[C@@H]2C[C@H](NC(=O)OC(C)(C)C)CN2)C(=O)NCCC[C@H](NC(=O)[C@H](Cc2ccccc2)N(CC(=O)OC(C)(C)C)C(=O)OC(C)(C)C)C(=O)O)c(C)c2c1OC(C)(C)C2), `Cc1c(C)c(S(=O)(=O)NC(=N)NCCC[C@@H]2NC(=O)[C@H](Cc3c[nH]c4ccccc34)NC(=O)[C@@H](C[C@H]3CC[C@@H](O)CC3)NC(=O)[C@@H]3C[C@H](NC(=O)OC(C)(C)C)CN3C(=O)[C@@H](NC(=O)[C@H](Cc3ccccc3)N(CC(=O)OC(C)(C)C)C(=O)OC(C)(C)C)CCCNC2=O)c(C)c2c1OC(C)(C)C2` came in with a ring closure, yield of all isomers of 100%.
